Results as given in ChEMBL document CHEMBL4622857, “Is GPR146 really the receptor for proinsulin C-peptide?” (Bioorg Med Chem Lett, 2020).
Calls of active or inactive are those of the source. No cut-off for these calls is given here.

Experiments:
[1] = biological target: G-protein coupled receptor 146 (Homo sapiens) (UniProt Q96CH1); assay: Activation of human GPR146 receptor expressed in HEK293 cells assessed as increase in dynamic mass redistribution response by DMR assay; type: cell-based
[2] = biological target: G-protein coupled receptor 146 (Homo sapiens) (UniProt Q96CH1); assay: Activation of human GPR146 receptor expressed in HK2 cells assessed as increase in dynamic mass redistribution response by DMR assay; type: cell-based
[3] = Drug uptake in CHOK1 cells expressing human GPR146 at 0.1 to 0.5 uM by using Cy3-labeled compound by fluorescence microsocpy; type: ADME, cell-based, Cricetulus griseus; conditions: chinese hamster, cho-k1, 0.5 µM
[4] = Drug uptake in human HK2 cells at 0.1 to 0.5 uM using Cy3-labeled compound by fluorescence microscopy; type: ADME, cell-based; conditions: hk-2, 0.5 µM
[5] = biological target: G-protein coupled receptor 146 (Homo sapiens) (UniProt Q96CH1); assay: Activation of human GPR146 expressed in HK2 cells assessed as increase in dynamic mass redistribution response up to 100 uM by DMR assay; type: cell-based
[6] = Drug uptake in CHOK1 cells at 0.1 to 0.5 uM by using Cy3-labeled compound by fluorescence microsocpy; type: ADME, cell-based, Cricetulus griseus; conditions: chinese hamster, cho-k1, 0.5 µM
[7] = biological target: Glucagon-like peptide 1 receptor (Homo sapiens) (UniProt P43220); assay: Activation of human GLP1R expressed in CHO-K1 cells assessed as increase in dynamic mass redistribution response upto 100 uM by DMR assay; type: cell-based
Sequence of Glucagon-like peptide 1 receptor (Homo sapiens) (P43220 whole entry): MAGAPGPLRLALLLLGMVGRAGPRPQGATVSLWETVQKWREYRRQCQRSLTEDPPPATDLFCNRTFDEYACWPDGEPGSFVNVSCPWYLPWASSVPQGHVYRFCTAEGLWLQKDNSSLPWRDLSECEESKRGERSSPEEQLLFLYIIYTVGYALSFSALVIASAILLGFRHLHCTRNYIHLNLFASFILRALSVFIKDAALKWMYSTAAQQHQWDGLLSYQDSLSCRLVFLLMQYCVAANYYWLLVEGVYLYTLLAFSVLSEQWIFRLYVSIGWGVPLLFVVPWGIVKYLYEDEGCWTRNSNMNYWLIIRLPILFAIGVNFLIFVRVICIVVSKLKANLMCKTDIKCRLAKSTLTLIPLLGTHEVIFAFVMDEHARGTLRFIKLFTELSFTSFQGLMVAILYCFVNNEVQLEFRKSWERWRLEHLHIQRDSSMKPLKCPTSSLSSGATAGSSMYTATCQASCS

[8] = biological target: G-protein coupled receptor 146 (Homo sapiens) (UniProt Q96CH1); assay: Agonist activity at human GPR146 receptor expressed in HEK293 cells assessed as recruitment of beta-arrestin up to 100 uM by PathHunter assay; type: cell-based
[9] = biological target: G-protein coupled receptor 146 (Homo sapiens) (UniProt Q96CH1); assay: Activation of human GPR146 expressed in CHO-K1 cells assessed as increase in dynamic mass redistribution response upto 100 uM by DMR assay; type: cell-based
[10] = biological target: G-protein coupled receptor 146 (Homo sapiens) (UniProt Q96CH1); assay: Activation of human GPR146 expressed in HEK293 cells assessed as increase in dynamic mass redistribution response up to 100 uM by DMR assay; type: cell-based
[11] = biological target: Glucagon-like peptide 1 receptor (Homo sapiens) (UniProt P43220); assay: Activation of human GLP1R expressed in CHO-K1 cells assessed as increase in dynamic mass redistribution response at 100 uM by DMR assay; type: cell-based
[12] = biological target: G-protein coupled receptor 146 (Homo sapiens) (UniProt Q96CH1); assay: Activation of human GPR146 expressed in CHO-K1 cells assessed as increase in dynamic mass redistribution response at 100 uM by DMR assay; type: cell-based

Sequence of G-protein coupled receptor 146 (Homo sapiens) (Q96CH1 whole entry): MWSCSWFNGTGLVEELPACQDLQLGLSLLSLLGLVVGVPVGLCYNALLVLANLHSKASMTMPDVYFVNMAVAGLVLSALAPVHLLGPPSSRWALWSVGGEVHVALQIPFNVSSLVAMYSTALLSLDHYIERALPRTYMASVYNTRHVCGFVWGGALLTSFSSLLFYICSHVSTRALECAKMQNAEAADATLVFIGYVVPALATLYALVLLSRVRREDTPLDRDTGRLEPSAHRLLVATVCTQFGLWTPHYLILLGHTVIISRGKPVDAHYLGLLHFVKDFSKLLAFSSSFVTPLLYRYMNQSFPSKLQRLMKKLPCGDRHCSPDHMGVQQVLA

| Activity [1] | Activity [2] | Drug uptake [3] | Drug uptake [4] | Activity [5] | Drug uptake [6] | Activity [7] | Activity [8] | Activity [9] | Activity [10] | Activity [11] | Activity [12] | Compound |
| --- | --- | --- | --- | --- | --- | --- | --- | --- | --- | --- | --- | --- |
| Active | Active |  |  |  |  |  |  |  |  |  |  | C[N+](C)(C)CCOC(N)=O |
|  |  | Not Active | Not Active | inactive | Not Active |  | inactive |  | inactive | inactive | Active | CC(C)C[C@H](NC(=O)[C@H](C)NC(=O)[C@H](CC(C)C)NC(=O)[C@@H]1CCCN1C(=O)[C@H](CCC(N)=O)NC(=O)[C@H](CC(C)C)NC(=O)[C@H](CO)NC(=O)CNC(=O)[C@H](C)NC(=O)CNC(=O)[C@@H]1CCCN1C(=O)CNC(=O)CNC(=O)CNC(=O)[C@H](CC(C)C)NC(=O)[C@H](CCC(=O)O)NC(=O)[C@@H](NC(=O)[C@H](CCC(N)=O)NC(=O)CNC(=O)[C@@H](NC(=O)[C@H](CCC(N)=O)NC(=O)[C@H](CC(C)C)NC(=O)[C@H](CC(=O)O)NC(=O)[C@H](CCC(=O)O)NC(=O)[C@H](C)NC(=O)[C@@H](N)CCC(=O)O)C(C)C)C(C)C)C(=O)N[C@@H](CCC(=O)O)C(=O)NCC(=O)N[C@@H](CO)C(=O)N[C@@H](CC(C)C)C(=O)N[C@@H](CCC(N)=O)C(=O)O [HUMAN C-PEPTIDE] |
|  |  | Not Active | Not Active | inactive | Not Active | Active | inactive |  |  |  | Active | H-EVARQ-OH |

Further lines, the compound ahead of its results:

| Compound | Activity [1] | Activity [2] | Drug uptake [3] | Drug uptake [4] | Activity [5] | Drug uptake [6] | Activity [7] | Activity [8] | Activity [9] | Activity [10] | Activity [11] | Activity [12] |
| --- | --- | --- | --- | --- | --- | --- | --- | --- | --- | --- | --- | --- |
| H-EVEDPQVEQLELGGSPGDLQTLALEVARQ-OH |  |  | Not Active | Not Active | inactive | Not Active | Active | inactive | Active | inactive |  |  |
| H-GADQPVGSEQQVQAGGLEGGLLLGLELPSEA-OH |  |  | Not Active | Not Active | inactive | Not Active | Active | inactive | Active | inactive |  |  |
| H-EGSLQ-OH |  |  | Not Active | Not Active | inactive | Not Active | Active | inactive | Active | inactive |  |  |
